Our source for the IC50 values is US7928106B2, “Aza-pyridopyrimidinone derivatives” (Hoffmann-La Roche Inc., priority 2007, dated 2011).

This assay deals with T1, HM74A receptor (Homo sapiens, UniProt Q8TDS4).
T1 construct: expressed in transfected cells; host or cells: HEK-293 cells (stably transfected), membrane preparation
As to the kind of experiment: Primary radiolabelled ligand competition binding assay ([3H]-nicotinic acid). The note with it: inhibition of [3H]-nicotinic acid binding, membranes of HEK-293 cells stably transfected with the HM74A receptor. The protocol:
Primary Radiolabelled Ligand Competition Binding Assay
Nicotinic acid binding assays were performed with membrane preparations. A cell pellet containing 1×10^8 HEK-293 cells, stably transfected with the HM74A receptor, was resuspended in 3 ml of ice cold Dounce Buffer (10 mM Tris-Cl pH 7.6, 0.5 mM MgCl2) supplemented with Roche protease inhibitor cocktail and homogenized at high speed on a Polytron homogenizer two times for 20 sec on ice. Nuclei and unbroken cells were removed by centrifugation for 5 min at 1,000×g after the addition of 1 ml of tonicity restoration buffer (10 mM Tris pH 7.6, 0.5 mM MgCl2, 600 mM NaCl). The homogenate was centrifuged at 60,000×g for 30 min and pellets were resuspended in Tris buffer (50 mM Tris pH 7.4, containing protease inhibitors). Binding reactions contained 20 µg membranes as determined by BCA protein assay (Pierce), 50 nM [^3H]-nicotinic acid (Amersham) with or without compound addition in 250 μl of binding buffer (50 mM Tris pH 7.4, 2 mM MgCl2, 0.02% CHAPS). […] Bound [^3H]-nicotinic acid was determined by scintillation counting using Top Count NXT (PerkinElmer). […] The effects of compounds were expressed as % inhibition of [^3H]-nicotinic acid binding. Sigmoidal curves were fitted using the XLfit3 program (ID Business Solutions Ltd. UK) and IC50 values determined.

T1 sequence (Q8TDS4 whole entry): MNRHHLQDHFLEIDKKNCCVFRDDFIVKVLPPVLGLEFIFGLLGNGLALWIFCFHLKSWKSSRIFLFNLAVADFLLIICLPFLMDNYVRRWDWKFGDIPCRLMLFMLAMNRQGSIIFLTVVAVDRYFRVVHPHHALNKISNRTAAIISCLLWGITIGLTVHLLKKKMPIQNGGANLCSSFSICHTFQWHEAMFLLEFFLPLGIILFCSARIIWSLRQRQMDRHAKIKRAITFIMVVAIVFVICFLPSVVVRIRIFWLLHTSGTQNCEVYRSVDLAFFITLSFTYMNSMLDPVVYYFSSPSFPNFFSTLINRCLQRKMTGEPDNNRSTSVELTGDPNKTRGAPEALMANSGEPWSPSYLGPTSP

In general, IC50 refers to the concentration that gives 50% inhibition. Read a low IC50 as inhibition by little substance. As to `O=c1[nH]c(COCCc2cc(F)ccc2F)nc2nccnc12` [Example 2, 2-[2-(2,5-Difluoro-phenyl)-ethoxymethyl]-3H-pteridin-4-one], the IC50 was determined as 2390 nM. With `O=c1[nH]c(COCCc2cccc(Cl)c2)nc2nnccc12` [Example 7, 7-[2-(3-Chloro-phenyl)-ethoxymethyl]-6H-pyrimido[4,5-c]pyridazin-5-one] the figure was 668 nM.
